Source: patent US20250163029A1, “PYRIDONE OR PYRIMIDONE DERIVATIVE AND APPLICATION THEREOF” (Medshine Discovery Inc., priority 2022, published 2025)
Where a name gives a salt, the structure may show the parent alone. Read-outs that look alike come from different tables or passages of the source.

Tests used:
plasma protein [1] = assay: Plasma protein binding rate (PPB), SD rats; assay type: in vitro ADME; conditions: 2 μM, 4 hours dialysis
Description: (§1) 597 μL of blank plasma from CD-1 mice, SD rats, beagle dogs, cynomolgus monkeys and humans were weighed, and the working solution of the assay compound or the working solution of warfarin was added, so that the final concentration of the assay compound and warfarin in the plasma sample was 2 μM. The samples were mixed thoroughly. The final concentration of DMSO as an organic phase was 0.5%; 50 μL of the assay compound and warfarin plasma samples were pipetted into a sample receiving plate, and the corresponding volume of blank plasma or buffer was immediately added, so that the final volume of each sample well was 100 μL, and the volume ratio of plasma:dialysis buffer was 1:1, and then the stop solution was added to these samples. The samples were used as the To sample for recovery and stability determination. The assay compound and warfarin plasma samples were added to the dosing end of each dialysis well, and blank dialysis buffer was added to the receiving end corresponding to the dialysis well. Then the dialysis plate was sealed with a gas permeable membrane and placed in a humidified 5% CO2 incubator, and incubated with shaking at 37° C. and 100 rpm for 4 hours. […] After protein precipitation, all samples were analyzed by LC/MS/MS, and the free rate (% Unbound) of the compound was calculated by the following formula: […]

[2] = Pharmacokinetic (PK) assay in mice; assay type: in vivo, C57BL6/J strain mice; conditions: C57BL6/J, plasma; for AUC: mouse
Description: Objective of assay: The druggability of compounds was evaluated by measuring their pharmacokinetic properties in different animal species.
Assay Materials: C57BL6/J strain mice, Sprague-Dawley strain rats and beagle dogs.
The pharmacokinetic characteristics of the compound after intravenous and oral administration were assayed in animals using a standard protocol. In the assay, the candidate compound was prepared into a clear solution (intravenous injection) or a homogeneous suspension (oral administration) and administrated to the animal once. Whole blood samples were collected within 24 hours, and centrifuged at 3200 g for 10 minutes. The supernatant was separated to obtain a plasma sample. The blood concentration was quantitatively analyzed by LC-MS/MS analysis method, and pharmacokinetic parameters such as peak concentration, time to peak, clearance rate, half-life, and area under the drug-time curve were calculated.

plasma protein [3] = assay: Plasma protein binding rate (PPB), CD-1 mice; assay type: in vitro ADME; conditions: 2 μM, 4 hours dialysis
Description: as §1

plasma protein [4] = assay: Plasma protein binding rate (PPB), beagle dogs; assay type: in vitro ADME; conditions: 2 μM, 4 hours dialysis
Description: as §1

Cn1cnc(Cc2cn(Cc3cc(F)c(F)cc3F)c(Nc3cc4cn(C)nc4cc3Cl)nc2=O)n1 [Compound 4 hydrochloride]
PPB_Unbound (%) (plasma protein [1]): 4.5%
AUC ([2]; iv, 1 mg/kg, IV, 1 mpk, read-out: AUC): 32.8 µM·h
AUC ([2]; iv, 1 mg/kg, IV, 1 mpk, read-out: AUCfree): 0.92 µM·h
AUC ([2]; po, 5 mg/kg, PO, 5 mpk, read-out: AUC): 145 µM·h
AUC ([2]; po, 5 mg/kg, PO, 5 mpk, read-out: AUCfree): 4.1 µM·h
Vd ([2]; 1 mg/kg, Mouse, IV, 1 mpk): 0.23 L/kg
clearance ([2]; 1 mg/kg, Mouse, IV, 1 mpk): 0.98 mL/min/kg
half-life ([2]; 1 mg/kg, Mouse, IV, 1 mpk): 2.6 h
Cmax ([2]; 5 mg/kg, Mouse, PO, 5 mpk): 31 µM
Tmax ([2]; 5 mg/kg, Mouse, PO, 5 mpk): 0.75 h
bioavailability ([2]; 5 mg/kg, Mouse, PO, 5 mpk): 88%
half-life ([2]; 5 mg/kg, Mouse, PO, 5 mpk): 2.7 h
PPB_Unbound (%) (plasma protein [3]): 2.8%
PPB_Unbound (%) (plasma protein [4]): 23.9%
